Patent US7659251B2, “Ligand for G-protein coupled receptor FPRL2” (priority 2004, dated 2010)

Key:
monocyte-derived DCs = test: Ca2+ mobilization assay on monocyte-derived DCs; assay type: cell-based, human; settings: dose-dependent; FIG. 13A
Method: (§1) Monocyte-derived DCs were generated either from the adherent fraction of PBMCs cultured with GM-CSF (800 U/ml) and […] (500 U/ml), or from Percoll-purified monocytes cultured with GM-CSF (50 ng/ml) and IL-13 (20 ng/ml), for 5 to 7 days. For Ca^2+ mobilization assay, monocytes were obtained by negative selection with the Monocyte Isolation Kit II (Miltenyi Biotec). […] For Ca^2+ mobilization assays, monocyte-derived DCs or monocytes (5×10^5 cells/ml in HBSS without phenol red but containing 0.1% BSA and 1 mM Probenecid (Sigma)) were loaded with 4 μM Fluo 4 (Molecular Probes) for 1 h at 20° C. in the dark. The loaded cells were washed twice, resuspended at 1 to 2×10^6 cells/ml and 50 μl of cell suspension was distributed per well of a 96 well plate (Viewplate, Packard Bioscience). Reading was performed in a Fluostar fluorimeter (BMG) at 25° C.: 50 μl of ligand-containing medium was injected, and the fluorescence at 520 nm was recorded every second for 1 to 3 min. Each condition was performed in triplicate, the mean fluorescence for each time point was calculated, and the curves were normalized by subtracting the mean value of the five measurements preceding the injection.

monocytes = test: Ca2+ mobilization assay on monocytes; assay type: cell-based, human; settings: 100 nM F2L; FIG. 13C
Method: as §1

FPR [1] = target: T1, FPR (Homo sapiens, UniProt P21462, E346A/V101L); test: Aequorin-based assay on CHO-K1 cells expressing FPR; assay type: cell-based
T1 construct: expressed in transfected cells; host or cells: CHO-K1 (with or without Galpha16 and apoaequorin)
T1 sequence (P21462 1-350 V101L/E346A): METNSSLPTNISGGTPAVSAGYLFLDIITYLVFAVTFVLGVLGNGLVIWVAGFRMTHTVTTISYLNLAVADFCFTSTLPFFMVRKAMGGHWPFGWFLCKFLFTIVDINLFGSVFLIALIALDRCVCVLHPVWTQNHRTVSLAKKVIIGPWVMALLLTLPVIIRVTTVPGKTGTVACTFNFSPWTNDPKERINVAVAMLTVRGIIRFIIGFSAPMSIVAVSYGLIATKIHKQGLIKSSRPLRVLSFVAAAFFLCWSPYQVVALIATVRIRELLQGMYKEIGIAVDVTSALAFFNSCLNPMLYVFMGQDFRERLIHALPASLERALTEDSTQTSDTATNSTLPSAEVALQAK
Excerpt: The human coding sequences (accession numbers AC005946, M84562 and M60626, respectively) were amplified by PCR from human genomic DNA, cloned into the pcDNA3 (Invitrogen) and pEFIN3 (Euroscreen) vectors and sequenced. The pEFIN3 constructs were transfected, using Fugene 6, into CHO-K1 cells, expressing or not Gα16 and apoaequorin. G418-resistant clones were characterized for receptor expression by Northern blotting. […] Results were expressed as relative light units (RLU) or as the percentage of the response to 20 μM ATP.

FPR [2] = target: T1, FPR; test: cAMP accumulation assay (HTRF, forskolin) on FPR-expressing CHO-K1 cells; assay type: cell-based
Method: The cAMP concentrations were determined using a homogeneous time-resolved fluorescence (HTRF) kit (Cis Bio International). Briefly, cells were detached, resuspended in Krebs Ringer Hepes buffer containing 1 mM 3-Isobutyl-1-methylxanthine, and submitted to 10 μM forskolin, alone or together with increasing concentrations of agonists for 30 min at room temperature. The reaction was stopped by the successive addition of cAMP-XL665 and anti-cAMP cryptate diluted in lysis buffer. The plates were incubated for 60 min at room temperature and read on a Rubystar fluorimeter (BMG). […] A calibration curve was obtained by plotting delta F % versus cAMP concentrations. […] The aequorin-based assay was performed with or without overnight pretreatment with 100 ng/ml Pertussis toxin. […] For FPRL2 polymorphism analysis, HEK cells were transiently transfected with empty and wild-type or Asp338H is FPRL2-containing pcdna vector using calcium phosphate method. Cells were recovered 48 hours later and used for FACS or cAMP experiments.

FPR [3] = target: T1, FPR; test: Competition binding on FPR-expressing CHO-K1 cells, tracer [125I]-WKYMVm
Method: FPRL2, FPRL1 and FPR-expressing CHO-K1 cells were plated in 24 wells plates (200,000 cells per well for FPRL2, and 100,000 cells per well for the two other receptors). The next day, the cells were washed twice with a KRH buffer containing 280 mM saccharose and, for FPRL1 and FPR, 0.1 % NaN3. […] Cells were washed twice with ice cold buffer, total radioactivity was recovered with 1 M […] and counted in a gamma counter for […]

[4] = system: wild-type CHO-K1 cells, ChemerinR and other GPCRs; test: Aequorin-based assay on wild-type CHO-K1 cells and CHO-K1 cells expressing ChemerinR and other GPCRs; assay type: cell-based; settings: data not shown
Excerpt: The human coding sequences (accession numbers AC005946, M84562 and M60626, respectively) were amplified by PCR from human genomic DNA, cloned into the pcDNA3 (Invitrogen) and pEFIN3 (Euroscreen) vectors and sequenced. The pEFIN3 constructs were transfected, using Fugene 6, into CHO-K1 cells, expressing or not Gα16 and apoaequorin. G418-resistant clones were characterized for receptor expression by Northern blotting. A functional assay based on the luminescence of mitochondrial aequorin was performed as described (42). Results were expressed as relative light units (RLU) or as the percentage of the response to 20 μM ATP.

Q: Which “intracellular Ca2+ flux in immature DCs” value (monocyte-derived DCs) does the source give for `CC[C@H](C)[C@H](NC(=O)[C@H](CCSC)NC(=O)CNC(=O)[C@H](CC(C)C)NC(=O)[C@H](CCSC)NC(C)=O)C(=O)N[C@@H](CCCCN)C(=O)N[C@@H](CC(N)=O)C(=O)N[C@@H](CO)C(=O)N[C@@H](CC(C)C)C(=O)N[C@@H](Cc1ccccc1)C(=O)NCC(=O)N[C@@H](CO)C(=O)N[C@H](C(=O)N[C@@H](CCC(=O)O)C(=O)N[C@H](C(=O)N[C@@H](Cc1c[nH]c2ccccc12)C(=O)N1CCC[C@H]1C(=O)N[C@@H](Cc1c[nH]c2ccccc12)C(=O)N[C@@H](CCC(N)=O)C(=O)N[C@H](C(=O)N[C@@H](CC(C)C)C(=O)O)C(C)C)[C@@H](C)O)C(C)C` [F2L] here?
A: promoted intracellular Ca^2+ flux

Q: And the “calcium mobilization in purified monocytes” value (monocytes)?
A: Calcium mobilization was also observed

Q: And the “activation of FPR” value (FPR [1]; FIG. 6)?
A: not able to activate

Q: What about the EC50 (FPR [1]; FPR, −Log of EC50 in Mol/L, mean ± s.e.m., read-out: pEC50 (sequorin assay) (converted)) of the same compound?
A: > 1 µM

Q: What about the “activity in the aequorin assay on FPR” value (FPR [1]; up to 5 μM) of the same compound?
A: no activity was detected

Q: What about the “inhibition of cAMP accumulation on FPR” value (FPR [2]; 1 μM F2L) of the same compound?
A: only partial inhibition

Q: And the EC50 (FPR [2]; FPR, −Log of EC50 in Mol/L, mean ± s.e.m., read-out: pEC50 (cAMP assay) (converted))?
A: > 1 µM

Q: What about the IC50 (FPR [3]; FPR, −Log of IC50 in Mol/L, mean ± s.e.m., read-out: pIC50 (binding assay) (converted)) of the same compound?
A: > 1 µM

Q: And the “competition for FPR binding” value (FPR [3]; up to concentrations of 3 μM, tracer [125I]WKYMVm)?
A: no competition

Q: What about the “activity on all other cell lines tested” value [4] of the same compound?
A: completely inactive
